Test results from PubChem BioAssay (NCI).
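Five compound concentrations were applied to cells in 96-well plates for 48 hours; endpoints were derived by simple linear interpolation of the resulting dose-response curve. GI50 = concentration required for 50% inhibition of growth. TGI: concentration producing complete growth inhibition.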

Assays:
Assay in all cases: inhibition of tumour cell growth, NCI panel, 48 h
HCC-2998 colon = tested on: HCC-2998 colon
CAKI-1 renal = tested on: CAKI-1 renal
U251 CNS = tested on: U251 CNS
LOX IMVI melanoma = tested on: LOX IMVI melanoma
786-0 renal = tested on: 786-0 renal
RPMI-8226 leukemia = tested on: RPMI-8226 leukemia
HS 578T breast = tested on: HS 578T breast
COLO 205 colon = tested on: COLO 205 colon
SK-OV-3 ovarian = tested on: SK-OV-3 ovarian
NCI-H460 lung = tested on: NCI-H460 lung
NCI-H226 lung = tested on: NCI-H226 lung
SK-MEL-28 melanoma = tested on: SK-MEL-28 melanoma
OVCAR-5 ovarian = tested on: OVCAR-5 ovarian
DU-145 prostate = tested on: DU-145 prostate
HOP-62 NSCLC = tested on: HOP-62 NSCLC
A549 NSCLC = tested on: A549 NSCLC
MDA-MB-435 = tested on: MDA-MB-435
SF-295 CNS = tested on: SF-295 CNS
MDA-MB-231 breast = tested on: MDA-MB-231 breast
UACC-257 melanoma = tested on: UACC-257 melanoma
HCT-116 colon = tested on: HCT-116 colon
SNB-75 CNS = tested on: SNB-75 CNS
A498 renal = tested on: A498 renal
OVCAR-4 ovarian = tested on: OVCAR-4 ovarian
SNB-19 CNS = tested on: SNB-19 CNS
NCI/ADR-RES ovarian = tested on: NCI/ADR-RES ovarian
ACHN renal = tested on: ACHN renal
M14 melanoma = tested on: M14 melanoma
T-47D breast = tested on: T-47D breast
KM12 colon = tested on: KM12 colon
SW-620 colon = tested on: SW-620 colon
PC-3 prostate = tested on: PC-3 prostate
HOP-92 NSCLC = tested on: HOP-92 NSCLC
UACC-62 melanoma = tested on: UACC-62 melanoma
OVCAR-3 ovarian = tested on: OVCAR-3 ovarian
SK-MEL-5 melanoma = tested on: SK-MEL-5 melanoma
NCI-H23 lung = tested on: NCI-H23 lung
SF-268 CNS = tested on: SF-268 CNS
RXF 393 renal = tested on: RXF 393 renal
SN12C renal = tested on: SN12C renal
EKVX NSCLC = tested on: EKVX NSCLC
OVCAR-8 ovarian = tested on: OVCAR-8 ovarian
HCT-15 colon = tested on: HCT-15 colon
MCF7 breast = tested on: MCF7 breast
CCRF-CEM leukemia = tested on: CCRF-CEM leukemia
SF-539 CNS = tested on: SF-539 CNS
HT29 colon = tested on: HT29 colon
UO-31 renal = tested on: UO-31 renal
NCI-H522 lung = tested on: NCI-H522 lung
SK-MEL-2 melanoma = tested on: SK-MEL-2 melanoma
TK-10 renal = tested on: TK-10 renal
MOLT-4 leukemia = tested on: MOLT-4 leukemia
K-562 leukemia = tested on: K-562 leukemia
SR leukemia = tested on: SR leukemia
MALME-3M melanoma = tested on: MALME-3M melanoma

Compound: CCCCCCCCO/N=C\c1c2c(O)c3c(O)c(C)c4c(c3c1O)C(=O)C(C)(O/C=C\C(OC)C(C)C(OC(C)=O)C(C)C(O)C(C)C(O)C(C)/C=C\C=C(\C)C(=O)N2)O4 (stereo not given)
- GI50 (HCC-2998 colon): 2.05 µM
- TGI (HCC-2998 colon): 7.03 µM
- GI50 (CAKI-1 renal): 1.33 µM
- TGI (CAKI-1 renal): 5.04 µM
- GI50 (U251 CNS): 1.14 µM
- TGI (U251 CNS): 3.03 µM
- GI50 (LOX IMVI melanoma): 1.53 µM
- TGI (LOX IMVI melanoma): 5.6 µM
- GI50 (786-0 renal): 1.13 µM
- TGI (786-0 renal): 2.77 µM
- GI50 (RPMI-8226 leukemia): 2.21 µM
- TGI (RPMI-8226 leukemia): 8.43 µM
- GI50 (HS 578T breast): 1.07 µM
- TGI (HS 578T breast): 3.1 µM
- GI50 (COLO 205 colon): 1.35 µM
- TGI (COLO 205 colon): 3.59 µM
- GI50 (SK-OV-3 ovarian): 1.86 µM
- TGI (SK-OV-3 ovarian): 6.68 µM
- GI50 (NCI-H460 lung): 0.998 µM
- TGI (NCI-H460 lung): 2.14 µM
- GI50 (NCI-H226 lung): 2.05 µM
- TGI (NCI-H226 lung): 9.71 µM
- GI50 (SK-MEL-28 melanoma): 1.37 µM
- TGI (SK-MEL-28 melanoma): 4.17 µM
- GI50 (OVCAR-5 ovarian): 2.12 µM
- TGI (OVCAR-5 ovarian): 8.08 µM
- GI50 (DU-145 prostate): 1.8 µM
- TGI (DU-145 prostate): 6.93 µM
- GI50 (HOP-62 NSCLC): 1.63 µM
- TGI (HOP-62 NSCLC): 5.78 µM
- GI50 (A549 NSCLC): 1.73 µM
- TGI (A549 NSCLC): 6.42 µM
- GI50 (MDA-MB-435): 1.43 µM
- TGI (MDA-MB-435): 5.9 µM
- GI50 (SF-295 CNS): 0.953 µM
- TGI (SF-295 CNS): 2.56 µM
- GI50 (MDA-MB-231 breast): 1.63 µM
- TGI (MDA-MB-231 breast): 5.91 µM
- GI50 (UACC-257 melanoma): 1.34 µM
- TGI (UACC-257 melanoma): 4.69 µM
- GI50 (HCT-116 colon): 1.06 µM
- TGI (HCT-116 colon): 2.19 µM
- GI50 (SNB-75 CNS): 1.66 µM
- TGI (SNB-75 CNS): 6.97 µM
- GI50 (A498 renal): 1.81 µM
- TGI (A498 renal): 7.12 µM
- GI50 (OVCAR-4 ovarian): 1.61 µM
- TGI (OVCAR-4 ovarian): 5.58 µM
- GI50 (SNB-19 CNS): 2.42 µM
- TGI (SNB-19 CNS): 8.93 µM
- GI50 (NCI/ADR-RES ovarian): 1.93 µM
- TGI (NCI/ADR-RES ovarian): 6.99 µM
- GI50 (ACHN renal): 1.78 µM
- TGI (ACHN renal): 6.58 µM
- GI50 (M14 melanoma): 1.57 µM
- TGI (M14 melanoma): 5.4 µM
- GI50 (T-47D breast): 2.06 µM
- TGI (T-47D breast): 7.45 µM
- GI50 (KM12 colon): 1.67 µM
- TGI (KM12 colon): 6.36 µM
- GI50 (SW-620 colon): 1.77 µM
- TGI (SW-620 colon): 6.09 µM
- GI50 (PC-3 prostate): 1.82 µM
- TGI (PC-3 prostate): 7.02 µM
- GI50 (HOP-92 NSCLC): 1.38 µM
- TGI (HOP-92 NSCLC): 5.32 µM
- GI50 (UACC-62 melanoma): 1.02 µM
- TGI (UACC-62 melanoma): 2.92 µM
- GI50 (OVCAR-3 ovarian): 0.96 µM
- TGI (OVCAR-3 ovarian): 2.18 µM
- GI50 (SK-MEL-5 melanoma): 0.948 µM
- TGI (SK-MEL-5 melanoma): 2.09 µM
- GI50 (NCI-H23 lung): 1.74 µM
- TGI (NCI-H23 lung): 6.55 µM
- GI50 (SF-268 CNS): 2.02 µM
- TGI (SF-268 CNS): 8.18 µM
- GI50 (RXF 393 renal): 1.14 µM
- TGI (RXF 393 renal): 3.18 µM
- GI50 (SN12C renal): 2.39 µM
- TGI (SN12C renal): 9.22 µM
- GI50 (EKVX NSCLC): 1.43 µM
- TGI (EKVX NSCLC): 6.59 µM
- GI50 (OVCAR-8 ovarian): 1.75 µM
- TGI (OVCAR-8 ovarian): 6.97 µM
- GI50 (HCT-15 colon): 1.79 µM
- TGI (HCT-15 colon): 6.81 µM
- GI50 (MCF7 breast): 1.36 µM
- TGI (MCF7 breast): 5.12 µM
- GI50 (CCRF-CEM leukemia): 1.95 µM
- TGI (CCRF-CEM leukemia): 9.82 µM
- GI50 (SF-539 CNS): 2.74 µM
- TGI (SF-539 CNS): 9.75 µM

Compound: CN=C1Nc2ccccc2C(=S)N2CSC[C@@H]12
- TGI (HCC-2998 colon): > 100 µM
- TGI (CAKI-1 renal): > 100 µM
- TGI (U251 CNS): > 100 µM
- TGI (HT29 colon): > 100 µM
- TGI (786-0 renal): > 100 µM
- TGI (RPMI-8226 leukemia): > 100 µM
- TGI (COLO 205 colon): > 100 µM
- TGI (SK-OV-3 ovarian): > 100 µM
- TGI (NCI-H460 lung): > 100 µM
- TGI (UO-31 renal): > 100 µM
- TGI (SK-MEL-28 melanoma): > 100 µM
- TGI (NCI-H522 lung): > 100 µM
- TGI (OVCAR-5 ovarian): > 100 µM
- TGI (DU-145 prostate): > 100 µM
- TGI (HOP-62 NSCLC): > 100 µM
- TGI (A549 NSCLC): > 100 µM
- TGI (MDA-MB-435): > 100 µM
- TGI (SF-295 CNS): > 100 µM
- TGI (MDA-MB-231 breast): > 100 µM
- TGI (HCT-116 colon): > 100 µM
- TGI (A498 renal): > 100 µM
- TGI (OVCAR-4 ovarian): > 100 µM
- TGI (SNB-19 CNS): > 100 µM
- TGI (NCI/ADR-RES ovarian): > 100 µM
- TGI (ACHN renal): > 100 µM
- TGI (M14 melanoma): > 100 µM
- TGI (T-47D breast): > 100 µM
- TGI (SK-MEL-2 melanoma): > 100 µM
- TGI (KM12 colon): > 100 µM
- TGI (SW-620 colon): > 100 µM
- TGI (TK-10 renal): > 100 µM
- TGI (PC-3 prostate): > 100 µM
- TGI (HOP-92 NSCLC): > 100 µM
- TGI (UACC-62 melanoma): > 100 µM
- TGI (OVCAR-3 ovarian): > 100 µM
- TGI (SK-MEL-5 melanoma): > 100 µM
- TGI (MOLT-4 leukemia): > 100 µM
- TGI (K-562 leukemia): > 100 µM
- TGI (NCI-H23 lung): > 100 µM
- TGI (SF-268 CNS): > 100 µM
- TGI (RXF 393 renal): > 100 µM
- TGI (SN12C renal): > 100 µM
- TGI (SR leukemia): > 100 µM
- TGI (OVCAR-8 ovarian): > 100 µM
- TGI (HCT-15 colon): > 100 µM
- TGI (MCF7 breast): > 100 µM
- TGI (SF-539 CNS): > 100 µM
- TGI (MALME-3M melanoma): > 100 µM
